# Legend:
# hERG potassium channel = hERG potassium channel (Homo sapiens (Human), UniProt Q12809); assay: hERG potassium channel current in stably expressed CHO cells; format: cell-based; settings: at 30 µM, 0.01 to 30 µM tested
# Source text: The hERG predictor assay provides valuable information about the possible binding of test compounds to the potassium channel and potential QT prolongation on […]. Inhibition of the hERG current causes QT interval prolongation resulting in potentially fatal ventricular tachyarrhythmia (Torsades de Pointes). Typically, assay data may be generated from an automated patch-clamp assay platform.
# Mouse PK microdialysis = format: in vivo
# Source text: (§1) Kpuu is the ratio of unbound drug in brain to unbound drug in plasma and may be indicative of potential for treating peripheral and/or CNS indications.
# Dog PK (CSF) = format: in vivo
# Source text: as §1
# Rat PK microdialysis = format: in vivo; settings: microdialysis 30 mg/kg po
# Source text: as §1
# FaSSIF solubility = format: physicochemical; settings: pH 6.5, fasted state simulated intestinal fluid
# Source text: FaSSIF: simulated intestinal fluid in fasted state measured at pH 6.5.
# [1] = Brain homogenate binding mouse (equilibrium dialysis); format: in vitro ADME; settings: read-out: Binding Mouse Brain fu,br
# Source text: (§2) Plasma fu,p: The free fraction of a compound in plasma preparation determined by in vitro equilibrium dialysis. It is understood that only unbound (free) compound is capable of engaging with the target. Brain fu,br: The free fraction of a compound in brain homogenate preparation determined by in vitro equilibrium dialysis. It is understood that only unbound (free) compound is capable of engaging with the target.
# [2] = system: Eurofins CEREP SafetyScreen44 panel; assay: Eurofins CEREP SafetyScreen44 panel profiling; format: binding; settings: single concentration of 10 µM
# Source text: Aside from selectivity over other DUB enzymes, it is important for a drug to have low affinity for other targets, and pharmacological profiling may be performed against panels of targets to assess the potential for, and to minimise, potential off-target effects. Examples of targets for which the compounds of the present invention may be screened against are those of the industry standard Eurofins-Cerep SafetyScreen44 panel, which includes 44 targets as a representative selection of GPCR receptors, transporters, ion channels, nuclear receptors, and kinase and non-kinase enzymes. Preferably, compounds of the invention have insignificant affinity against targets of this screening panel. Further examples of targets for which the compounds of the present invention may be screened against are kinases of the Thermo Fisher SelectScreen kinase profiling panel, which includes 39 targets as a representative selection of kinase enzymes. Preferably, compounds of the invention have insignificant affinity against targets of this screening panel. Additionally, examples of a particular enzyme class for which the compounds of the present invention may be screened against are the cathepsins (e.g. cathepsin A, B, C, H, K, L, L2, S, V and Z). Preferably, compounds of the invention have good selectivity for USP30 over one or more of these enzymes.
# UCHL1 = UCHL1 (Homo sapiens (Human), UniProt P09936); assay: UCHL1 DUB IC50; format: biochemical
# Sequence of UCHL1 (P09936 whole entry, species assumed): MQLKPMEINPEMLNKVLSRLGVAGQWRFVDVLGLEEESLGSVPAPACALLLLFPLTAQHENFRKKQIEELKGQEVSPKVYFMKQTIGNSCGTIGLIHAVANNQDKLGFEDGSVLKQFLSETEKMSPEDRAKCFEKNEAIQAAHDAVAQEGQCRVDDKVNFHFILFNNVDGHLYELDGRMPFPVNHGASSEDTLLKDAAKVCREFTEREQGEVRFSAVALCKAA
# Mouse plasma stability = format: in vitro ADME; settings: for half-life: read-out: Stability Mouse plasma t½
# Source text: Other parameters that may be measured using standard assays that are indicative of a compound’s exposure profile include, for example plasma stability (half-life measurement), blood AUC, Cmax, Cmin and Tmax values.
# [3] = Plasma binding mouse (equilibrium dialysis); format: in vitro ADME; settings: read-out: Binding Mouse Plasma fu,p
# Source text: as §2
# [4] = system: USP2, USP6, USP10, USP16, USP21, USP25, USP28; assay: DUB IC50 selectivity panel (seven DUBs); format: biochemical; settings: range over the seven DUBs
# Hepatocyte Cl mouse = format: in vitro ADME; settings: mouse hepatocytes
# Method: Hep Cl mouse: in vitro hepatocyte clearance in mouse cells.
# (§3) Clu: in vitro clearance. Clu as defined here is the scaled clearance, in turn calculated from the intrinsic clearance. The intrinsic clearance is the predicted clearance due to hepatic metabolic reactions, determined from incubation of a compound in a hepatocyte preparation.
# [5] = system: Salmonella typhimurium strains TA98, TA100, TA1535 and TA97a and the Escherichia Coli strain WP2 uvrA pKM101; assay: Bacterial reverse mutation assay (Ames); settings: up to 5000 µg/plate with and without metabolic activation
# Method: The bacterial reverse mutation assay (Ames Test) may be used to evaluate the mutagenic properties of compounds of the invention, commonly by using the bacterial strain Salmonella typhimurium, which is mutant for the biosynthesis of the amino acid histidine.
# All in vitro tests were conducted with and without exogenous metabolic activation using concentrations up to those limited by cytotoxicity or insolubility.
# Turbidimetric solubility = format: physicochemical; settings: aqueous buffer, kinetic from dmso stock
# Source text: The solubility of a compound is an important factor in achieving a desired concentration of drug in systemic circulation for the anticipated pharmacological response. Low aqueous solubility is a problem encountered with formulation development of new chemical entities and to be absorbed a drug must be present in the form of solution at the site of absorption. The kinetic solubility of a compound may be measured using a turbidimetric solubility assay, the data from which may also be used in conjunction with Caco-2 permeability data to predict dose dependent human intestinal absorption.
# Turbidimetric solubility: Test compound solution prepared in DMSO diluted into aqueous buffer. Turbidimetry is used as the end-point by measuring absorbance at 620 nm.
# Cathepsin B = Cathepsin B (Homo sapiens (Human), UniProt P07858); assay: Cathepsin B IC50; format: biochemical
# WT-MDCK in vitro flux = format: in vitro ADME; settings: dog
# Hepatocyte Cl human = format: in vitro ADME; settings: human hepatocytes
# Method: Hep Cl human: in vitro hepatocyte clearance in human cells.
# as §3
# UUO injured kidneys = assay: Unilateral ureteral obstructive kidney disease model (UUO); format: in vivo, C57BL/6 mice; settings: 10 days
# Source text: UUO causes renal injury characterised by tubular cell injury, interstitial inflammation and fibrosis. It serves as a model of irreversible post-renal acute kidney injury (AKI). Experimental UUO has illustrated the molecular mechanisms of apoptosis, inflammation and fibrosis, all of which are key processes in renal injury, regardless of the primary insult. Consequently, the UUO model provides investigators information beyond obstruction (Chevalier et al, 2009, Kidney Int 75(11): 1145-1152). Example 1 was assessed in the UUO model to determine the ability of the compound to attenuate progressive tubulointerstitial fibrosis and chronic kidney disease (CKD). […] Two hours post dosing on day 1 study mice underwent surgery to ligate the left ureter at two points. Successful UUO surgery was later confirmed by observation of dilation of renal pelvis due to hydronephrosis. The animals were dosed according to their prescribed regimen for 10 days at which point kidneys were harvested, or histopathology assessment and for protein/RNA assessment. Picrosirius Red staining was performed to assess the extent of collagen deposition and IHC was employed to assess relative α-Smooth Muscle Actin (α-SMA) expression.
# PK mouse (IV and oral) = format: in vivo; settings: plasma
# Source text: Cl in vivo clearance: Pharmacokinetic measurement of the volume of plasma (or any matrix) from which a substance is completely removed per unit time.
# Cathepsin L = Cathepsin L (Homo sapiens (Human), UniProt P07711); assay: Cathepsin L IC50; format: biochemical
# Sequence of Cathepsin L (P07711 114-333, species assumed): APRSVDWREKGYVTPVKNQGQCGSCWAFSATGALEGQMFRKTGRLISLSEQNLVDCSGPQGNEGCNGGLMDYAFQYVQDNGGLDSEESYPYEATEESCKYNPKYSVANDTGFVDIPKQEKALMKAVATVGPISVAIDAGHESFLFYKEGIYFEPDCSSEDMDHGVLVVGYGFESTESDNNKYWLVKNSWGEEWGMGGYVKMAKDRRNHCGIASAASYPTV
# TK6 cells = assay: In vitro micronucleus assay; format: cell-based; settings: 27 hours recovery
# Method: The micronucleus assay may be used to determine if a compound is genotoxic by evaluating the presence of micronuclei. Micronuclei may contain chromosome fragments produced from DNA breakage (clastogens) or whole chromosomes produced by disruption of the mitotic apparatus (aneugens).
# Induction of chromosome damage was assessed using the in vitro micronucleus assay in TK6 cells.
# [6] = system: cathepsins (B, K, L, S and V); assay: Cathepsin IC50 panel, summary over B, K, L, S, V; format: biochemical; settings: range over the five cathepsins
# [7] = system: HCT116 human colorectal carcinoma cells; assay: In vitro cytotoxicity (Cell Tox), alamarBlue; format: cell-based; settings: HCT-116, 96-hour continual compound exposure
# Source text: There is also a need for compounds that have a favourable safety profile, which may be measured by a variety of standard in vitro and in vivo methods. A cell toxicity counter-screen may be used to assay the anti-proliferative/cytotoxic effect in a particular cell line (e.g. HCT116) by fluorometric detection of rezasurin (alamarBlue™) to resofurin in response to mitochondrial activity.
# In Vitro Cytotoxicity (Cell Tox): Measured in HCT116 human colorectal carcinoma cells using alamarBlue™ as the assay endpoint. Compound cytotoxicity was measured over a period of 96-hour continual compound exposure.
# [8] = Log D lipophilicity measurement; format: physicochemical; settings: pH 7.4; read-out: Log D measured at pH 7.4
# Source text: log D: distribution co-efficient; lipophilicity measurement.
# Cathepsin V = Cathepsin V (Homo sapiens (Human), UniProt O60911); assay: Cathepsin V IC50; format: biochemical
# Sequence of Cathepsin V (O60911 114-334, species assumed): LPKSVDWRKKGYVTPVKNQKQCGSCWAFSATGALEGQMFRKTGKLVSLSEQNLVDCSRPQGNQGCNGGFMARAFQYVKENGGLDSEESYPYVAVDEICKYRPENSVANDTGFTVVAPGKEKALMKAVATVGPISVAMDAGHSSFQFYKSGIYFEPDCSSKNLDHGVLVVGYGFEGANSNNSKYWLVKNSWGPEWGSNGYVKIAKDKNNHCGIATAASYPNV
# USP30 = USP30 (Homo sapiens (Human), UniProt Q70CQ3); assay: USP30 biochemical IC50 assay (fluorescence polarisation); settings: biochemical FP assay, 30 min enzyme/compound incubation
# Sequence of USP30 (Q70CQ3 57-517): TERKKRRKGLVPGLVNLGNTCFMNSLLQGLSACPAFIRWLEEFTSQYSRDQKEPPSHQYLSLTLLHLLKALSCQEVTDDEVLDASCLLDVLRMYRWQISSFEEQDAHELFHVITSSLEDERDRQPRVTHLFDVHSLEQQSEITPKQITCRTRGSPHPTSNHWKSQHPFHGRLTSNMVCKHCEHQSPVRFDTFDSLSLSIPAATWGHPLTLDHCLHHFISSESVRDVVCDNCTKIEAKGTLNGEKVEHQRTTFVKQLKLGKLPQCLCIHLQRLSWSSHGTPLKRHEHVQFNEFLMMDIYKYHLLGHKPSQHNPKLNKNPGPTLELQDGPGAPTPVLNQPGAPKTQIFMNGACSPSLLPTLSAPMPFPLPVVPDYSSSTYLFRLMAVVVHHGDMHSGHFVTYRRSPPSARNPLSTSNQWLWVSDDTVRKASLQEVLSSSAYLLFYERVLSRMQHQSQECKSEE
# Method: Compounds of the invention may be tested for USP30 affinity using the in vitro biochemical fluorescence polarization (FP) assay described herein.
# Dilution plates were prepared at 21 times the final concentration (2100 µM for a final concentration of 100 µM) in 50% DMSO in a 96-well polypropylene V-bottom plate (Greiner #651201). A typical 8-point dilution series would be 100, 30, 10, 3, 1, 0.3, 0.1, 0.03 µM final. Reactions were performed in duplicate in black 384 well plates (small volume, Greiner 784076) in a final reaction volume of 21 µl. Either 1 µl of 50% DMSO or diluted compound was added to the plate. USP30 (Boston Biochem #E582) was diluted in reaction buffer (40 mM Tris, pH 7.5, 0.005% Tween 20, 0.5 mg/ml BSA, 5 mM beta-mercaptoethanol) to achieve a final assay concentration of 4 nM, and 10 µl of diluted USP30 was added to the compound. Enzyme and compound were incubated for 30 min at room temp. Reactions were initiated by the addition of 50 nM of TAMRA labelled peptide linked to ubiquitin via an iso-peptide bond as fluorescence polarisation substrate. Reactions were read immediately after addition of substrate and following a 2-hour incubation at room temperature. Readings were performed on a Pherastar Plus (BMG Labtech). λ Excitation 540 nm; λ Emission 590 nm.
# Sequence of hERG potassium channel (Q12809 whole entry): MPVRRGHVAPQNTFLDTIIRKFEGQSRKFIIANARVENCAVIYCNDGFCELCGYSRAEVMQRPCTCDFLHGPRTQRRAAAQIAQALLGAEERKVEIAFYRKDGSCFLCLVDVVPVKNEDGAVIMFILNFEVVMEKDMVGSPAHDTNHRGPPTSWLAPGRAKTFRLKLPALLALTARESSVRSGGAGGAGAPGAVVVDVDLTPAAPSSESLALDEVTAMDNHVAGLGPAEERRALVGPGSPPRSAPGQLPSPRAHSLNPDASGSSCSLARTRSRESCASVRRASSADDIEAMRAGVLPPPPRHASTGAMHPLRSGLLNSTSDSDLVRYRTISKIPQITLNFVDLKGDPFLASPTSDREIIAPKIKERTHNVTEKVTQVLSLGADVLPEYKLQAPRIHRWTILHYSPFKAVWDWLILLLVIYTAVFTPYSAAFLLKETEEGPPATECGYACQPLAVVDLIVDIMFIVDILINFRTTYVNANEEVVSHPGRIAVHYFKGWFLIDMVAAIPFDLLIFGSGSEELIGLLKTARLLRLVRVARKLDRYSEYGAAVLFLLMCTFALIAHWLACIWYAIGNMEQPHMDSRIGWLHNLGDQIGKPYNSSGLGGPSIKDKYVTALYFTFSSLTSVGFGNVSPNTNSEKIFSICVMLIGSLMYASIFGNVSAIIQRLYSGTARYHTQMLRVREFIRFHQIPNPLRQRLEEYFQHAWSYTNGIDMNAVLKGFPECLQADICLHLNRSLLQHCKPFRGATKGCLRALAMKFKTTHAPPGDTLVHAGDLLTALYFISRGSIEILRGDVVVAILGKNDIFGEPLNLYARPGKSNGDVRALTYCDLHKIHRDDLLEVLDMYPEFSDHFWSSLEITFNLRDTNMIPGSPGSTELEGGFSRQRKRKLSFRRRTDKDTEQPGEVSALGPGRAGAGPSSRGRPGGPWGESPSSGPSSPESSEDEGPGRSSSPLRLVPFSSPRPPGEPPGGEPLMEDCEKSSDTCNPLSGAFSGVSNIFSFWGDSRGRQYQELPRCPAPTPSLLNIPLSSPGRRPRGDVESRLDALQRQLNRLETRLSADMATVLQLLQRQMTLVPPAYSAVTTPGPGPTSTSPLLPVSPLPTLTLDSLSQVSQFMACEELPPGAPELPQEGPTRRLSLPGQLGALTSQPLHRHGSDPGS
structure (smiles),measurement,setting,value
"C[C@@H]1[C@H]2CCN(C(=O)c3ncc(-c4ccnc(C#N)c4)o3)[C@H]2CN1C#N (single isomer, unassigned) [Example 1]",maximum inhibition of the hERG current amplitude,hERG potassium channel,27%
same,CNS distribution in vivo by microdialysis sampling of brain regions,Mouse PK microdialysis; 30 mg/kg oral dose in mice and rats,high CNS distribution
same,Mouse Kpuu (PFCu/plasmau),Mouse PK microdialysis; microdialysis 30 mg/kg po,0.90
same,Mouse PFCu/cell TOM20-Ub,Mouse PK microdialysis; microdialysis 30 mg/kg po,125-fold
same,Dog Kpuu (CSF/plasmau),Dog PK (CSF); 30 mg/kg po,0.41
same,partition to the cerebro-spinal fluid (CSF),"Dog PK (CSF); dogs, 30 mg/kg orally",high partition
same,Rat Kpuu (PFCu/plasmau),Rat PK microdialysis,0.43
same,FaSSIF (µM) measured at pH 6.5,FaSSIF solubility,488 µM
same,fraction unbound,[1],0.3
same,inhibition of binding or enzyme activity against all targets in the panel,[2],less than 50%
same,IC50,UCHL1,> 300 µM
same,"improved plasma stability compared to Reference Examples A, B and C",Mouse plasma stability,2 to 8 fold
same,half-life,Mouse plasma stability,> 120 min
same,fraction unbound,[3],0.14
same,IC50,[4],24.9 to 107 µM
same,Hepatocyte Cl mouse scaled Clu,Hepatocyte Cl mouse,40 mL/min/kg
same,induction of mutations in reverse mutation assay,[5],did not induce mutations
same,solubility,Turbidimetric solubility,65 µM
same,IC50,Cathepsin B,205 µM
same,Papp A→B,WT-MDCK in vitro flux,16 ×10⁻⁶ cm/s
same,Hepatocyte Cl human scaled Clu,Hepatocyte Cl human,18 mL/min/kg
same,α-SMA levels in UUO injured kidneys vs vehicle,UUO injured kidneys; 1.5 mg/kg oral BID,statistical reduction in α-SMA levels
same,collagen deposition (picrosirius red staining) in ligated kidneys,UUO injured kidneys; 1.5 mg/kg p.o. BID,statistically reduced collagen deposition
same,collagen deposition (picrosirius red staining) in ligated kidneys,UUO injured kidneys; 5 mg/kg p.o. BID,statistically reduced collagen deposition
same,bioavailability,"PK mouse (IV and oral); po, mouse 10 mg/kg, read-out: Oral F (%)",87%
same,clearance,"PK mouse (IV and oral); mouse 2 mg/kg IV, read-out: Cl plasma",19 mL/min/kg
same,IC50,Cathepsin L,42.1 µM
same,induction of micronuclei,TK6 cells; 3 hours in the presence of exogenous metabolic activation,negative
same,induction of micronuclei,TK6 cells; 27 hours in the absence of exogenous metabolic activation,negative
same,IC50,[6],≥ 42.1 µM
same,EC50,[7],> 30 µM
same,logD,[8],1.4
same,IC50,Cathepsin V,247 µM
COc1ccc(-c2cc(C(=O)N3CC[C@@H]4CN(C#N)C[C@@H]43)on2)cc1 [B],half-life,Mouse plasma stability,21 min
same,IC50,USP30,70 nM
same,IC50,[4],0.54 to 38.8 µM
same,Hepatocyte Cl mouse scaled Clu,Hepatocyte Cl mouse,> 121 mL/min/kg
same,IC50,Cathepsin B,1.4 µM
same,IC50,Cathepsin L,1.8 µM
same,IC50,Cathepsin V,2.3 µM
N#CN1CC[C@H](C(=O)Nc2ncc(-c3ccccc3)s2)C1 [D],fold more potent against USP30 than UCHL1,UCHL1,0.8 fold
Cc1cc(-c2cccc(C(=O)N3CC[C@@H]4CN(C#N)C[C@@H]43)c2)ccn1 [Reference Example C],half-life,Mouse plasma stability,16 min
same,IC50,USP30,72 nM
same,IC50,[4],4 to 92.4 µM
same,Hepatocyte Cl mouse scaled Clu,Hepatocyte Cl mouse,108 mL/min/kg
same,IC50,Cathepsin B,1.2 µM
same,IC50,Cathepsin L,1.3 µM
same,IC50,Cathepsin V,18.5 µM
CC1CC(C(=O)Nc2ncc(-c3ccccc3)s2)CN1C#N (stereo not shown) [Reference Example E],fold more potent against USP30 than UCHL1,UCHL1,1.5 fold
